Assay results: PubChem BioAssay AID2060498 (Molecular Pharmacology Branch, DTP, NCI, 2025)

Tested on: 171881-019-R-J1-PDC tumor spheroids, viability
Assay: Anticancer human tumor 171881-019-R-J1-PDC patient-derived invasive breast carcinoma cell line growth inhibition [GQUAD]
Settings: spheroids with HUVEC and MSC; for IC50: curve of first compound; for viability, T/C: stronger effect = lower value
How it was run: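 Viability of tumor cells grown as complex spheroids with endothelial and stromal cells, exposed to drug combinations. Top concentration at or near clinical Cmax (else 10 microM), diluted in half-log increments.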

[1] = second compound 0.0316 µM, first compound 0.0316 µM
[2] = second compound 0.0316 µM, first compound 0.1 µM
[3] = second compound 0.0316 µM, first compound 0.316 µM
[4] = second compound 0.0316 µM, first compound 1 µM
[5] = second compound 0.0316 µM, first compound 3.16 µM
[6] = second compound 0.0316 µM, first compound 10 µM
[7] = second compound 0.1 µM, first compound 0.0316 µM
[8] = second compound 0.1 µM, first compound 0.1 µM
[9] = second compound 0.1 µM, first compound 0.316 µM
[10] = second compound 0.1 µM, first compound 1 µM
[11] = second compound 0.1 µM, first compound 3.16 µM
[12] = second compound 0.1 µM, first compound 10 µM
[13] = second compound 0.316 µM, first compound 0.0316 µM
[14] = second compound 0.316 µM, first compound 0.1 µM
[15] = second compound 0.316 µM, first compound 0.316 µM
[16] = second compound 0.316 µM, first compound 1 µM
[17] = second compound 0.316 µM, first compound 3.16 µM
[18] = second compound 0.316 µM, first compound 10 µM
[19] = second compound 1 µM, first compound 0.0316 µM
[20] = second compound 1 µM, first compound 0.1 µM
[21] = second compound 1 µM, first compound 0.316 µM
[22] = second compound 1 µM, first compound 1 µM
[23] = second compound 1 µM, first compound 3.16 µM
[24] = second compound 1 µM, first compound 10 µM
[25] = second compound 3.16 µM, first compound 0.0316 µM
[26] = second compound 3.16 µM, first compound 0.1 µM
[27] = second compound 3.16 µM, first compound 0.316 µM
[28] = second compound 3.16 µM, first compound 1 µM
[29] = second compound 3.16 µM, first compound 3.16 µM
[30] = second compound 3.16 µM, first compound 10 µM
[31] = second compound 10 µM, first compound 0.0316 µM
[32] = second compound 10 µM, first compound 0.1 µM
[33] = second compound 10 µM, first compound 0.316 µM
[34] = second compound 10 µM, first compound 1 µM
[35] = second compound 10 µM, first compound 3.16 µM
[36] = second compound 10 µM, first compound 10 µM
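For viability, T/C in this document: 100% = DMSO vehicle control viability.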

Cc1cccc(N(C)C(=O)C2C(O)CCN2c2nc(C)cc(C(F)(F)F)c2C#N)c1 (stereo unspecified) + CN(C)c1ccc(Nc2c3ccc(NC(=O)CCN4CCCC4)cc3nc3cc(NC(=O)CCN4CCCC4)ccc23)cc1
IC50 (second compound 0.0316 µM): > 10000 nM
IC50 (second compound 0.1 µM): > 10000 nM
IC50 (second compound 0.316 µM): 7840 nM
IC50 (second compound 1 µM): < 31.6 nM
IC50 (second compound 3.16 µM): < 31.6 nM
IC50 (second compound 10 µM): < 31.6 nM
viability, T/C [1]: 87.6%
viability, T/C [2]: 91.2%
viability, T/C [3]: 103%
viability, T/C [4]: 101%
viability, T/C [5]: 87.6%
viability, T/C [6]: 79.2%
viability, T/C [7]: 99.2%
viability, T/C [8]: 102%
viability, T/C [9]: 96.4%
viability, T/C [10]: 105%
viability, T/C [11]: 85.6%
viability, T/C [12]: 75.2%
viability, T/C [13]: 88.3%
viability, T/C [14]: 93.5%
viability, T/C [15]: 85.2%
viability, T/C [16]: 75.1%
viability, T/C [17]: 75.7%
viability, T/C [18]: 43.3%
viability, T/C [19]: 26.3%
viability, T/C [20]: 23.1%
viability, T/C [21]: 31.7%
viability, T/C [22]: 23.1%
viability, T/C [23]: 19.1%
viability, T/C [24]: 9.15%
viability, T/C [25]: 1.62%
viability, T/C [26]: 1.75%
viability, T/C [27]: 1.5%
viability, T/C [28]: 1.54%
viability, T/C [29]: 1.07%
viability, T/C [30]: 1.26%
viability, T/C [31]: 0.45%
viability, T/C [32]: 0.54%
viability, T/C [33]: 0.26%
viability, T/C [34]: 0.48%
viability, T/C [35]: 0.65%
viability, T/C [36]: 0.44%

CC1COCCN1c1cc(C2(O)CC3CCC(C2)O3)c2cnn(-c3ccn[nH]3)c2n1 (stereo unspecified) + Cc1[nH]c2ccc(F)cc2c1-c1nc2c3cccnc3c3ncccc3c2[nH]1
IC50 (second compound 0.0316 µM): 34.5 nM
IC50 (second compound 0.1 µM): 38.1 nM
IC50 (second compound 0.316 µM): 33.8 nM
IC50 (second compound 1 µM): < 31.6 nM
IC50 (second compound 3.16 µM): < 31.6 nM
IC50 (second compound 10 µM): < 31.6 nM
viability, T/C [1]: 52.8%
viability, T/C [2]: 20.5%
viability, T/C [3]: 10.3%
viability, T/C [4]: 5.52%
viability, T/C [5]: 4.37%
viability, T/C [6]: 4.08%
viability, T/C [7]: 55.6%
viability, T/C [8]: 20.6%
viability, T/C [9]: 9.69%
viability, T/C [10]: 5.6%
viability, T/C [11]: 3.81%
viability, T/C [12]: 3.56%
viability, T/C [13]: 52.1%
viability, T/C [14]: 20.3%
viability, T/C [15]: 9.82%
viability, T/C [16]: 5.18%
viability, T/C [17]: 4.67%
viability, T/C [18]: 3.78%
viability, T/C [19]: 36.9%
viability, T/C [20]: 15.5%
viability, T/C [21]: 9.46%
viability, T/C [22]: 5.53%
viability, T/C [23]: 5.14%
viability, T/C [24]: 3.53%
viability, T/C [25]: 15.7%
viability, T/C [26]: 10.5%
viability, T/C [27]: 6.92%
viability, T/C [28]: 4.31%
viability, T/C [29]: 4.06%
viability, T/C [30]: 1.96%
viability, T/C [31]: 14.8%
viability, T/C [32]: 12.1%
viability, T/C [33]: 7.38%
viability, T/C [34]: 5.1%
viability, T/C [35]: 4.66%
viability, T/C [36]: 3.28%

CC[C@@]1(O)C(=O)OCc2c1cc1n(c2=O)Cc2cc3c(CN(C)C)c(O)ccc3nc2-1 + Cc1[nH]c2ccc(F)cc2c1-c1nc2c3cccnc3c3ncccc3c2[nH]1
IC50 (second compound 0.0316 µM): 96.1 nM
IC50 (second compound 0.1 µM): 122 nM
IC50 (second compound 0.316 µM): 142 nM
IC50 (second compound 1 µM): 119 nM
IC50 (second compound 3.16 µM): < 0.999 nM
IC50 (second compound 10 µM): < 0.999 nM
viability, T/C (second compound 0.0316 µM, first compound 0.000999 µM): 97%
viability, T/C (second compound 0.0316 µM, first compound 0.00316 µM): 86.9%
viability, T/C (second compound 0.0316 µM, first compound 0.00999 µM): 97.9%
viability, T/C [1]: 87.1%
viability, T/C (second compound 0.0316 µM, first compound 0.0999 µM): 48.8%
viability, T/C [3]: 37.8%
viability, T/C (second compound 0.1 µM, first compound 0.000999 µM): 108%
viability, T/C (second compound 0.1 µM, first compound 0.00316 µM): 99.1%
viability, T/C (second compound 0.1 µM, first compound 0.00999 µM): 93.1%
viability, T/C [7]: 87.1%
viability, T/C (second compound 0.1 µM, first compound 0.0999 µM): 50.8%
viability, T/C [9]: 39.7%
viability, T/C (second compound 0.316 µM, first compound 0.000999 µM): 101%
viability, T/C (second compound 0.316 µM, first compound 0.00316 µM): 104%
viability, T/C (second compound 0.316 µM, first compound 0.00999 µM): 90.5%
viability, T/C [13]: 82.8%
viability, T/C (second compound 0.316 µM, first compound 0.0999 µM): 53.9%
viability, T/C [15]: 38.1%
viability, T/C (second compound 1 µM, first compound 0.000999 µM): 87.6%
viability, T/C (second compound 1 µM, first compound 0.00316 µM): 68%
viability, T/C (second compound 1 µM, first compound 0.00999 µM): 86%
viability, T/C [19]: 70.3%
viability, T/C (second compound 1 µM, first compound 0.0999 µM): 52.8%
viability, T/C [21]: 37.7%
viability, T/C (second compound 3.16 µM, first compound 0.000999 µM): 21.7%
viability, T/C (second compound 3.16 µM, first compound 0.00316 µM): 17.7%
viability, T/C (second compound 3.16 µM, first compound 0.00999 µM): 22.7%
viability, T/C [25]: 24.3%
viability, T/C (second compound 3.16 µM, first compound 0.0999 µM): 22.9%
viability, T/C [27]: 16.7%
viability, T/C (second compound 10 µM, first compound 0.000999 µM): 46.2%
viability, T/C (second compound 10 µM, first compound 0.00316 µM): 41.7%
viability, T/C (second compound 10 µM, first compound 0.00999 µM): 45.2%
viability, T/C [31]: 38.4%
viability, T/C (second compound 10 µM, first compound 0.0999 µM): 37.6%
viability, T/C [33]: 20.7%
